From patent publication US6770652B2, “Multiple acting anti-angiogenic and cytotoxic compounds and methods for using the same” (Duquesne University of the Holy Ghost, priority 2001, dated 2004)
Where two headings read alike, the source gives them in different places.

How the values were obtained:
[1] = U251 cytotoxicity; type: cell-based; settings: human, U251 cells; Table 4; read-out: U251 cytotoxicity Inhibition, apparent IC50
[2] = tested on: chorioallantoic membrane (CAM) of 10-day old chicken embryos; assay: CAM assay (growth factor-induced angiogenesis on chorioallantoic membrane); type: in vivo; settings: for IC50: Gallus gallus, read-out: CAM angiogenesis Inhibition, apparent IC50
Procedure: Human VEGF-165 and BFGF (200 ng each) were added to saturation to a microbial testing disk and placed onto the chorioallantoic membrane (CAM) of 10-day old chicken embryos. Eight hours after the growth factor treatment, unknown compounds (100 μg) were added to the same microbial testing disk. Growth factors and embryos were allowed to incubate an additional 40 hours. CAMS were removed, paraformaldehyde (4% in PBS) fixed, placed onto Petri dishes, and digital images taken at 7.5× using a dissecting microscope. A 1×1-cm grid was then added to the digital CAM images and the number of vessels within each grid counted as a measure of vascularity. […] Data were then graphed (FIG. 1) as a percent of growth factor-induced blood vessel amounts.

[3] = molecular target: Flk-1 (Homo sapiens, UniProt P35968); assay: Phospho-Flk1 phosphotyrosine ELISA (cytoblot) on whole U251 glioblastoma cells; Flk1 kinase inhibition; type: cell-based
Procedure: Reactions were stopped by the aspiration of media and the addition of phosphate buffered saline (PBS) containing 0.05% triton X-100, protease inhibitor cocktail and phosphatase inhibitor cocktail 2 (Sigma Chemical company) for 10 minutes on ice. Cells were then fixed at 60° C. for 30 minutes and then cold methanol added to the cells for five minutes to further permeabilize them for antibody penetration. Cells were blocked for one hour with 1% bovine serum albumin in PBS, washed twice in PBS, and then anti-phosphotyrosine-HRP conjugate (Oncogene Research) added at 1:250 dilution overnight. The antibody was then removed, the cells washed three times in PBS with 1% BSA and once with PBS, and luminol-peroxide reagent added (Pierce Biochemical) for 5 minutes. […] Data are graphed as a percentage of growth factor (EGF, VEGF) treated controls.

[4] = molecular target: Flt-1 (Homo sapiens, UniProt P17948); assay: Flt-1 kinase inhibition; type: cell-based; settings: Table 4; read-out: Flt-1 kinase Inhibition, apparent IC50
[5] = Table 2, read-out: FIK1 Kinase Inhibition IC50
[6] = Table 4, U251 cells overexpress Flk1, read-out: Flk-1 kinase Inhibition, apparent IC50

Chain of Flk-1 (P35968 20-1356): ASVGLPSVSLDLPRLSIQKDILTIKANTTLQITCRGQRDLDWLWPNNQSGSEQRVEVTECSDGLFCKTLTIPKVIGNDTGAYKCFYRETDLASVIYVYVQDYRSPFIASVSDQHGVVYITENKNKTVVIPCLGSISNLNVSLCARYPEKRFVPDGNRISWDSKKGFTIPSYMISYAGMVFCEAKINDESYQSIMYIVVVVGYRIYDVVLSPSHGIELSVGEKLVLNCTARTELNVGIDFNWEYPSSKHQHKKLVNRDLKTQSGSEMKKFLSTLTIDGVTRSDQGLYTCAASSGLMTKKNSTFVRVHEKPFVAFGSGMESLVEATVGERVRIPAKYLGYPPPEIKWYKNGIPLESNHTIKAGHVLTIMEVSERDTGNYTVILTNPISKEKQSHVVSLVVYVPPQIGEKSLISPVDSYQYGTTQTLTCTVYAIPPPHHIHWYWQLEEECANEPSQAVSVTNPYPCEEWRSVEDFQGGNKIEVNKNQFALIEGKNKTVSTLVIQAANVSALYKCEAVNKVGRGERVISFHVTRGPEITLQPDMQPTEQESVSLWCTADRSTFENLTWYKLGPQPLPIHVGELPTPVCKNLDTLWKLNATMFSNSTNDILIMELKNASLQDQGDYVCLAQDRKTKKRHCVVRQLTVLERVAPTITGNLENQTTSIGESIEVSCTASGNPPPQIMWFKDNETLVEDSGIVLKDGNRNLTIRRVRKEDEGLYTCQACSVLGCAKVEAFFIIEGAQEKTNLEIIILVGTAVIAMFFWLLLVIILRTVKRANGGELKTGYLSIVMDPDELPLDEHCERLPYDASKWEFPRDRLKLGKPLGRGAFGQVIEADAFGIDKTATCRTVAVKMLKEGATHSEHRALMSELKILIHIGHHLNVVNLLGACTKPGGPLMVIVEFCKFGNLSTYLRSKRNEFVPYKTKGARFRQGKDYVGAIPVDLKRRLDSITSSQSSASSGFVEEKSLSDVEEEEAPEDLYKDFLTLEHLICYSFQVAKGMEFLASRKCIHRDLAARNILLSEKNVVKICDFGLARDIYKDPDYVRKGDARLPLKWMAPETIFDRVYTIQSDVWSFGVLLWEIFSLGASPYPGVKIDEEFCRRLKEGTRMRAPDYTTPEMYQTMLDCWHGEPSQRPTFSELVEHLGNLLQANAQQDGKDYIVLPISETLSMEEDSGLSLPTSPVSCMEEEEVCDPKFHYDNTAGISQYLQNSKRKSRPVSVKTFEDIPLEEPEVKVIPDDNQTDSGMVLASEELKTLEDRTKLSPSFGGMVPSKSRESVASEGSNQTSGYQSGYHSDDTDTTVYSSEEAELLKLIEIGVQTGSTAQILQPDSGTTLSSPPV
Chain of Flt-1 (P17948 27-1338, species assumed): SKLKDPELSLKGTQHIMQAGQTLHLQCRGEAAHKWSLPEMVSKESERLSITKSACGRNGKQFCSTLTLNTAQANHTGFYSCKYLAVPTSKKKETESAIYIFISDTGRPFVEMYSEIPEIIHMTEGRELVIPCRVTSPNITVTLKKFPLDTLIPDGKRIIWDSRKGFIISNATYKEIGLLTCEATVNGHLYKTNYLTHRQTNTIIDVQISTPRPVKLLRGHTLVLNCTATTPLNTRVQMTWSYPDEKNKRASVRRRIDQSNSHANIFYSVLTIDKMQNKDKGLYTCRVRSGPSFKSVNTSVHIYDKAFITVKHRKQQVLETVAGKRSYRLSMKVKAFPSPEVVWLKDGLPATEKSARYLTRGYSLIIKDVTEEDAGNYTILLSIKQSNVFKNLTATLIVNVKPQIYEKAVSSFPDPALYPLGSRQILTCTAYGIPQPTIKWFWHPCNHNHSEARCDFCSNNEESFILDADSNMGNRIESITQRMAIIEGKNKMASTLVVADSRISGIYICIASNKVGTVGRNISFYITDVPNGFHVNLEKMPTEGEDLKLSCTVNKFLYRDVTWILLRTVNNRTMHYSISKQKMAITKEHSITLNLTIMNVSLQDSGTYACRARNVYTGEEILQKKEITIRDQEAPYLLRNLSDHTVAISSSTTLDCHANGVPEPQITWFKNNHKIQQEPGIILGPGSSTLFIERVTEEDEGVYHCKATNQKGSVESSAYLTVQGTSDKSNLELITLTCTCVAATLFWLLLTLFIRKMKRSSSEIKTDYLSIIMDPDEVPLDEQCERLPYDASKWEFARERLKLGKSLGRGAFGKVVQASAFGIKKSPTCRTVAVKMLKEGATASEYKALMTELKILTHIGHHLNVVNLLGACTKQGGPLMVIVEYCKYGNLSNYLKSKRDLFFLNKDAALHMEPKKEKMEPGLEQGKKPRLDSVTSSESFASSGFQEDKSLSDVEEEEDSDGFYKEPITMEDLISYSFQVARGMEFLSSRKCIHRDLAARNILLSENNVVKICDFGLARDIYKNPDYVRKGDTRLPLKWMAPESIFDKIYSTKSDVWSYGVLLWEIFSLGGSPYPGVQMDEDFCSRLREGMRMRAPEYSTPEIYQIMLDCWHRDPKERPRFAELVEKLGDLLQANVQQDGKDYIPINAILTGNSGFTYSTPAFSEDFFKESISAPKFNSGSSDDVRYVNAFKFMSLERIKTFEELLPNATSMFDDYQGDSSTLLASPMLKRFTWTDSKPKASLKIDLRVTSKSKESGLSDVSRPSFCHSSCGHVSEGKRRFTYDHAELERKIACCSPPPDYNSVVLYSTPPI

| Structure (SMILES) | IC50 [2] | further results |
| --- | --- | --- |
| Cc1cc(C)c(/C=C2\C(=O)Nc3ccccc32)[nH]1 [SU5416, reference compound] | < 100 nM | IC50 [1]: 200 nM |
| Nc1nc(Nc2cccc(Br)c2)c2cc(Cc3ccccc3Cl)[nH]c2n1 [YJ/AG 145] | 1700 nM |  |
| Nc1nc(Nc2cccc(Br)c2)c2cc(Cc3ccc4ccccc4c3)[nH]c2n1 [YJ/AG 146] | 8900 nM | IC50 [3, 5]: > 50000 nM; IC50 [3, 6]: > 50000 nM |
| Nc1nc(Nc2cccc(Br)c2)c2cc(Cc3ccc(Cl)c(Cl)c3)[nH]c2n1 [YJ/AG 148] | < 100 nM | Toxicity remark in CAM angiogenesis column ([2]; Table 4, remark under the CAM value): (toxic) |
| Nc1nc(Nc2cccc(Br)c2)c2cc(Cc3ccc(-c4ccccc4)cc3)[nH]c2n1 [YJ/AG 154] | < 100 nM |  |
| Nc1nc(Nc2cccc(Br)c2)c2cc(Cc3ccccc3)[nH]c2n1 [YJ/AG 156] | < 100 nM | IC50 [1]: 3400 nM |
| Nc1nc(Nc2cccc(Br)c2)c2cc(Cc3cccc4ccccc34)[nH]c2n1 [YJ/AG 158] | < 100 nM |  |
| Cc1ccccc1Cc1cc2c(Nc3cccc(Br)c3)nc(N)nc2[nH]1 [YJ/AG 168] | 1200 nM | IC50 [1]: 5000 nM; IC50 [4]: > 50000 nM; IC50 [3, 5]: 300 nM |
| Nc1nc(Nc2cccc(Br)c2)c2cc(Cc3ccc(Cl)cc3Cl)[nH]c2n1 [YJ/AG 176] | 10800 nM |  |
| COc1cc(Cc2cc3c(Nc4cccc(Br)c4)nc(N)nc3[nH]2)cc(OC)c1OC [YJ/AG 177] | 400 nM |  |
| COc1ccc(OC)c(Cc2cc3c(Nc4cccc(Br)c4)nc(N)nc3[nH]2)c1 [YJ/AG 178] | 1300 nM | IC50 [3, 5]: 600 nM; IC50 [3, 6]: 600 nM |
